Reference: PubChem BioAssay AID1963831 (Molecular Pharmacology Branch, DTP, NCI, 2024)
Values belong to the compound of their own block, whether it stands above or below them.

System: 889142-216-R-J1-PDC complex spheroid viability
Experiment: Anticancer human tumor 889142-216-R-J1-PDC patient-derived bladder carcinoma cell line growth inhibition [POLQ]
Conditions: for IC50: curve of first compound; for viability, T/C: stronger effect = lower value
Procedure, shortened: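 PDC + HUVEC + MSC complex spheroids; POLQ inhibitors ± partner drugs; top conc. at/near clinical Cmax, else 10 microM (SN-38 1 microM), half-log dilutions; 37 degrees C, 5% CO2.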
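Further: spheroids exposed to compounds for seven days.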
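Wherever viability, T/C is given: 100% = DMSO vehicle control viability.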

SMILES: CC(=O)O[C@H]1C(=O)[C@@]2(C)[C@H]([C@H](OC(=O)c3ccccc3)[C@]3(O)C[C@H](OC(=O)[C@H](O)[C@@H](NC(=O)c4ccccc4)c4ccccc4)C(C)=C1C3(C)C)[C@]1(OC(C)=O)CO[C@@H]1C[C@@H]2O + Cc1cccc(N(C)C(=O)C2C(O)CCN2c2nc(C)cc(C(F)(F)F)c2C#N)c1
- IC50 (second compound 0.0316 µM): > 3000 nM
- IC50 (second compound 0.1 µM): 344 nM
- IC50 (second compound 0.316 µM): > 3000 nM
- IC50 (second compound 1 µM): > 3000 nM
- IC50 (second compound 3.16 µM): 9.5 nM
- IC50 (second compound 10 µM): < 9.49 nM
- viability, T/C (second compound 0.0316 µM, first compound 0.00949 µM): 50.8%
- viability, T/C (second compound 0.0316 µM, first compound 0.03 µM): 45.5%
- viability, T/C (second compound 0.0316 µM, first compound 0.0949 µM): 57.5%
- viability, T/C (second compound 0.0316 µM, first compound 0.3 µM): 47.5%
- viability, T/C (second compound 0.0316 µM, first compound 0.949 µM): 53.1%
- viability, T/C (second compound 0.0316 µM, first compound 3 µM): 57.5%
- viability, T/C (second compound 0.1 µM, first compound 0.00949 µM): 51.4%
- viability, T/C (second compound 0.1 µM, first compound 0.03 µM): 56.5%
- viability, T/C (second compound 0.1 µM, first compound 0.0949 µM): 42.7%
- viability, T/C (second compound 0.1 µM, first compound 0.3 µM): 44.4%
- viability, T/C (second compound 0.1 µM, first compound 0.949 µM): 59%
- viability, T/C (second compound 0.1 µM, first compound 3 µM): 47.3%
- viability, T/C (second compound 0.316 µM, first compound 0.00949 µM): 56.7%
- viability, T/C (second compound 0.316 µM, first compound 0.03 µM): 50.6%
- viability, T/C (second compound 0.316 µM, first compound 0.0949 µM): 46.8%
- viability, T/C (second compound 0.316 µM, first compound 0.3 µM): 49.1%
- viability, T/C (second compound 0.316 µM, first compound 0.949 µM): 59.4%
- viability, T/C (second compound 0.316 µM, first compound 3 µM): 50.3%
- viability, T/C (second compound 1 µM, first compound 0.00949 µM): 52%
- viability, T/C (second compound 1 µM, first compound 0.03 µM): 54%
- viability, T/C (second compound 1 µM, first compound 0.0949 µM): 48.8%
- viability, T/C (second compound 1 µM, first compound 0.3 µM): 49.5%
- viability, T/C (second compound 1 µM, first compound 0.949 µM): 52.2%
- viability, T/C (second compound 1 µM, first compound 3 µM): 53.4%
- viability, T/C (second compound 3.16 µM, first compound 0.00949 µM): 49.8%
- viability, T/C (second compound 3.16 µM, first compound 0.03 µM): 48.4%
- viability, T/C (second compound 3.16 µM, first compound 0.0949 µM): 46.7%
- viability, T/C (second compound 3.16 µM, first compound 0.3 µM): 56.9%
- viability, T/C (second compound 3.16 µM, first compound 0.949 µM): 48.3%
- viability, T/C (second compound 3.16 µM, first compound 3 µM): 46%
- viability, T/C (second compound 10 µM, first compound 0.00949 µM): 50.5%
- viability, T/C (second compound 10 µM, first compound 0.03 µM): 45.4%
- viability, T/C (second compound 10 µM, first compound 0.0949 µM): 46.9%
- viability, T/C (second compound 10 µM, first compound 0.3 µM): 48.2%
- viability, T/C (second compound 10 µM, first compound 0.949 µM): 44%
- viability, T/C (second compound 10 µM, first compound 3 µM): 52.7%

- IC50 (second compound 0.0316 µM): > 100 nM
- IC50 (second compound 0.1 µM): > 100 nM
- IC50 (second compound 0.316 µM): > 100 nM
- IC50 (second compound 1 µM): > 100 nM
- IC50 (second compound 3.16 µM): > 100 nM
- IC50 (second compound 10 µM): 64.7 nM
SMILES: CC[C@@]1(O)C(=O)OCc2c1cc1n(c2=O)Cc2cc3c(CN(C)C)c(O)ccc3nc2-1 + Cc1cccc(N(C)C(=O)C2C(O)CCN2c2nc(C)cc(C(F)(F)F)c2C#N)c1
- viability, T/C (second compound 0.0316 µM, first compound 0.000316 µM): 103%
- viability, T/C (second compound 0.0316 µM, first compound 0.001 µM): 103%
- viability, T/C (second compound 0.0316 µM, first compound 0.00316 µM): 84.2%
- viability, T/C (second compound 0.0316 µM, first compound 0.01 µM): 76.5%
- viability, T/C (second compound 0.0316 µM, first compound 0.0316 µM): 71.2%
- viability, T/C (second compound 0.0316 µM, first compound 0.1 µM): 56.8%
- viability, T/C (second compound 0.1 µM, first compound 0.000316 µM): 96%
- viability, T/C (second compound 0.1 µM, first compound 0.001 µM): 115%
- viability, T/C (second compound 0.1 µM, first compound 0.00316 µM): 109%
- viability, T/C (second compound 0.1 µM, first compound 0.01 µM): 83.7%
- viability, T/C (second compound 0.1 µM, first compound 0.0316 µM): 73%
- viability, T/C (second compound 0.1 µM, first compound 0.1 µM): 58.9%
- viability, T/C (second compound 0.316 µM, first compound 0.000316 µM): 97.8%
- viability, T/C (second compound 0.316 µM, first compound 0.001 µM): 111%
- viability, T/C (second compound 0.316 µM, first compound 0.00316 µM): 84.4%
- viability, T/C (second compound 0.316 µM, first compound 0.01 µM): 91.8%
- viability, T/C (second compound 0.316 µM, first compound 0.0316 µM): 72.6%
- viability, T/C (second compound 0.316 µM, first compound 0.1 µM): 56.6%
- viability, T/C (second compound 1 µM, first compound 0.000316 µM): 100%
- viability, T/C (second compound 1 µM, first compound 0.001 µM): 121%
- viability, T/C (second compound 1 µM, first compound 0.00316 µM): 93.2%
- viability, T/C (second compound 1 µM, first compound 0.01 µM): 82.2%
- viability, T/C (second compound 1 µM, first compound 0.0316 µM): 56.2%
- viability, T/C (second compound 1 µM, first compound 0.1 µM): 61.2%
- viability, T/C (second compound 3.16 µM, first compound 0.000316 µM): 118%
- viability, T/C (second compound 3.16 µM, first compound 0.001 µM): 103%
- viability, T/C (second compound 3.16 µM, first compound 0.00316 µM): 87.3%
- viability, T/C (second compound 3.16 µM, first compound 0.01 µM): 84%
- viability, T/C (second compound 3.16 µM, first compound 0.0316 µM): 59.2%
- viability, T/C (second compound 3.16 µM, first compound 0.1 µM): 57.9%
- viability, T/C (second compound 10 µM, first compound 0.000316 µM): 73.2%
- viability, T/C (second compound 10 µM, first compound 0.001 µM): 104%
- viability, T/C (second compound 10 µM, first compound 0.00316 µM): 75%
- viability, T/C (second compound 10 µM, first compound 0.01 µM): 68.3%
- viability, T/C (second compound 10 µM, first compound 0.0316 µM): 52.8%
- viability, T/C (second compound 10 µM, first compound 0.1 µM): 48%
